Experimental data from patent US5888993A, “Vanadium compounds in the treatment of elevated blood sugar levels” (The University of British Columbia, priority 1997, dated 1999).
“And” between values parts separate entries of the source, which are not always exact repeats. Identical values can stand only once.

Assays:
diabetic rats [1] = assay: Comparative testing, plasma glucose after oral gavage in STZ diabetic rats; format: in vivo, male wistar rats; details: oral gavage 1 mmol/kg
Protocol: Diabetes was induced in all animals by a single intravenous injection of streptozotocin (STZ) 60 mg/kg in 0.9% NaCl via the tail vein. Three days after STZ injection, blood was collected from the tail by nicking the tail tip and expressing the blood into heparinized capillary tubes. Blood was centrifuged at 20,000 g for 10 minutes to separate the plasma. Glucose analysis was done immediately on the plasma sample using a Boehringer Mannheim kit. […] One week after STZ injection animals were randomly divided into 3 pairs of rats. Each pair of rats received by oral gavage 1 mmol/kg of BMOV or VO(Sal)2 or VO(acac)2, suspended in 3% acacia.

normal rats = assay: Prolonged administration in drinking water (77 days), normal (control) rats; format: in vivo, rat
Protocol: (§1) BMOV was administered to normal and diabetic rats in drinking water.
(§2) The study was composed of 4 groups of animals Control (8 animals), Control-Treated (11 animals), Diabetic (11 animals) and Diabetic-Treated (12 animals). The diabetic state was induced by injecting STZ at 60 mg/kg dissolved in 0.9% NaCl I.V. via the tail vein to anaesthetized rats. The two control groups were injected with 0.9% NaCl I.V. through the tail vein. The diabetic state was determined with a "Testape"™ test at 3 days post-injection and later confirmed with a glucometer test. Blood glucose and insulin assays were carried out post-injection over the course of the study. Treatment according to the invention was started 1 week after determination of the diabetic state.
(§3) Treated diabetic animals received between 0.3 and 0.5 mmol/kg of the compound/day in drinking water over a 77 day period. Treated control animals received a slightly lower dose (0.2-0.3 mmol/day) over the same period. The concentration of BMOV in the drinking water was varied between 1.6 and 3.2 mM. The reason for the differing doses in the two sets of animals is that the two groups drank different amounts of water daily; it was difficult to attain the same dose in both groups.
(§4) 1. As indicated above, 4 groups of animals were studied, but the diabetic-treated group was sub-divided to diabetic-treated responders (8 animals) and diabetic-treated non-responders (4 animals). Curve 1 is the control group, curve 2 the control-treated group, curve 3 the diabetic group, curve 4 is the diabetic-treated responders and curve 5 is the diabetic-treated non-responders. […] Treatment began with a […] solution of the compound. […] On day 24, the concentration was increased to 2.37 mM (0.7 mg/ml).

diabetic rats [2] = assay: Prolonged administration in drinking water (77 days), STZ diabetic rats; format: in vivo, rat
Protocol: as §1, §2, §3, §4

diabetic rats [3] = assay: Blood glucose response after i.p. injection in STZ diabetic rats; format: in vivo, rat
Protocol: Initial experiments were carried out to determine pharmacological effectiveness of BMOV. Using male rats, made diabetic by the injection of streptoxoticin (STZ) at a dose of 60 mg/kg i.v., BMOV was initially given by intraperitoneal (i.p.) injection as a suspension in 1% methyl cellulose.
Two animals developed hypoglycemia.

WKY rats = assay: Blood pressure study with BMOV, Wistar Kyoto rats; format: in vivo, rat; details: WKYO, 0.75 mg/ml in drinking water
Protocol: 11 SHR and 12 WKY rats (all male) were procured at 4 weeks of age from Charles River, Canada. The animals were divided into four experimental groups: SHR (untreated n=5), SHRO (BMOV treated n=6), WKY (untreated n=8) and WKYO (BMOV treated n=4). Chronic BMOV treatment was commenced on the SHRO and WKYO groups at 5 weeks of age. The rats were given BMOV (0.75 mg/ml) ad libitum in the drinking water.
Once at week 5 and then starting at week 8, weekly measurements of blood pressure were done on all groups for the next 3 weeks. Blood samples were also collected via the tail vein during the weeks mentioned above. These were centrifuged and plasma was collected for subsequent glucose and insulin analyses. Chronic blood pressure measurements were done on conscious rats, using the tail cuff method without external preheating. Initial experiments to validate the tail cuff method by comparing the readings obtained with it to those obtained by direct arterial cannulation were conducted.

[4] = control treated, week 6, mean ± S.E.M.
[5] = diabetic-treated non-responders, pretreatment, mean ± S.E.M.
[6] = diabetic-treated non-responders, week 6, mean ± S.E.M.
[7] = diabetic-treated responders, pretreatment, mean ± S.E.M.
[8] = diabetic-treated responders, week 6, mean ± S.E.M.

Cc1occc(=O)c1[O-].Cc1occc(=O)c1[O-].[O]=[V+2] [BMOV, Bis(maltolato)oxovanadium(IV)]
blood glucose reducing effect vs compounds of Comparative Examples 15 and 16 (diabetic rats [1]): superior | plasma glucose level (diabetic rats [1]; 0 h, individual rats (two per drug)): 23.02 mM and 23.01 mM | plasma glucose level (diabetic rats [1]; 2 h, individual rats): 23.87 mM and 23.15 mM | plasma glucose level (diabetic rats [1]; 4 h, individual rats): 22.27 mM and 23.32 mM | plasma glucose level (diabetic rats [1]; 6 h, individual rats): 21.21 mM and 22.09 mM | plasma glucose level (diabetic rats [1]; 8 h, individual rats): 20.26 mM and 19.45 mM | plasma glucose level (diabetic rats [1]; 12 h, individual rats): 9.97 mM and 8.73 mM | plasma glucose level (diabetic rats [1]; 24 h, individual rats): 0.8 mM and 1.0 mM | insulin vs control, in words (normal rats; control treated): significantly lower | fluid intake (normal rats; control treated, day 77 (control 62.7±7.4)): 33.6 ± 7.2 mL | Cholesterol (normal rats; control treated, pretreatment (day before treatment started), mean ± S.E.M.): 1.64 ± 0.08 mmol/L | Triglyceride (normal rats; control treated, pretreatment, mean ± S.E.M.): 1.21 ± 0.14 mmol/L | Cholesterol (normal rats; [4]): 1.60 ± 0.06 mmol/L | Triglyceride (normal rats; [4]): 2.04 ± 0.22 mmol/L | food intake (normal rats; control-treated (control 29±0.1)): 25.5±0.3 grams per day | weight gain (normal rats; control-treated, 77 days, drinking water (control 250 g)): 200 g | fluid consumption vs all other groups, in words (normal rats; control-treated, by day 63): significant difference | weight gain, in words (normal rats; control-treated, from day 56): significantly decreased weight gain | food consumption vs all other groups, in words (normal rats; control-treated, from day 63 on): significant difference | weight, diabetic-treated groups vs all other groups (diabetic rats [2]; both diabetic-treated groups, by day 7): significant difference | plasma triglyceride and cholesterol, in words (diabetic rats [2]; diabetic animals): restored to control values | fluid intake (diabetic rats [2]; diabetic treated (diabetic about 275 ml/rat)): about 60 ml/rat | food intake (diabetic rats [2]; diabetic-treated (from greater than 50 grams per day)): about 30 grams per day | weight, non-responders vs other 4 groups (diabetic rats [2]; diabetic-treated non-responders, by day 28): significantly different from the other 4 groups | Cholesterol (diabetic rats [2]; [5]): 1.51 ± 0.07 mmol/L | Triglyceride (diabetic rats [2]; [5]): 1.85 ± 0.41 mmol/L | Cholesterol (diabetic rats [2]; [6]): 1.48 ± 0.09 mmol/L | Triglyceride (diabetic rats [2]; [6]): 2.31 ± 0.19 mmol/L | hypoglycemia (diabetic rats [2]; diabetic-treated responders, before day 18, treatment withheld): developed in several animals | blood glucose, in words (diabetic rats [2]; diabetic-treated responders, by day 14): euglycemic | weight, responders vs diabetic group (diabetic rats [2]; diabetic-treated responders, by day 28): no longer a significant difference | Cholesterol (diabetic rats [2]; [7]): 1.67 ± 0.10 mmol/L | Triglyceride (diabetic rats [2]; [7]): 1.10 ± 0.09 mmol/L | Cholesterol (diabetic rats [2]; [8]): 1.58 ± 0.11 mmol/L | Triglyceride (diabetic rats [2]; [8]): 1.70 ± 0.18 mmol/L | weight gain (diabetic rats [2]; diabetic-treated, 77 days, drinking water): 140 g | food consumption vs control, in words (diabetic rats [2]; diabetic-treated, at any time): no significant difference | Insulin values (diabetic rats [2]; diabetic-treated, day 28 of BMOV study): 22.0 ± 1.6 μU/ml | food intake (diabetic rats [2]; diabetic-treated, day 77): 28±1.6 grams per day | animals responding (blood glucose lowered) (diabetic rats [2]; diabetic-treated, drinking water): 8 out of the 12 and eight of the twelve | fluid consumption vs control, in words (diabetic rats [2]; diabetic-treated, throughout): no significant difference | blood glucose (diabetic rats [2]; non-responders (four of the twelve rats), on any given day): 6 to 30 mM | blood glucose, in words (diabetic rats [2]; responders, by day 24): normal blood glucose | blood glucose (diabetic rats [2]; responders, from day 7 onwards (from 20 mM)): less than 10 mM | cataracts (diabetic rats [2]; treated animals not controlled by the drug, end of 77 days): One of the four | cataracts (diabetic rats [2]; treated diabetic rats controlled by the drug, end of 77 days (untreated diabetic 5/11)): 0/8 | animals that developed hypoglycemia (diabetic rats [3]; 15 mg/kg i.p.): Two animals | rats responding with a decrease in blood glucose (diabetic rats [3]; 15 mg/kg i.p. (0.05 mmol/kg), suspension in 1% methyl cellulose): Nine out of the twelve | systolic blood pressure, normotensive controls (WKY rats): without having any effect
